The nature of data set [1]: phase 1 clinical trial: safety/tolerability and pharmacokinetics in healthy adult male volunteers. Conditions: healthy males. It is filed as in vivo, human. As for the experimental part: Forty healthy adult male volunteers in Korea were selected as subjects for the clinical trial. The clinical trial was conducted at Seoul National University Hospital (Seoul, Korea) and was targeted at people who met all of the selection criteria in [Table 1].
A randomized, double-blind, standard treatment-based placebo-controlled trial group was assigned to evaluate drug safety/tolerability and pharmacokinetics (PK) in clinical trial subjects. As a therapeutic agent, NuSepin, an injectable clinical agent containing TDCA, was used.
A screening test was performed on healthy male volunteers within 4 weeks (−28 d to −4 d) from the first administration date (1 d) of the study drug to select test subjects determined to be suitable for this clinical trial. […] In the morning on the study drug administration date (1 d), designated tests such as blood collection for pharmacokinetic analysis and safety evaluation were performed, and then the study drug or placebo was administered intravenously on an empty stomach. The test subjects were subjected to the clinical trial according to the set schedule and discharged from the hospital 1 day (2 d) after administration, and the subjects who completed all clinical trial schedules underwent a post-study visit between 4 d and 6 d.
• Monitoring of adverse events such as subjective and objective symptoms • Physical examination • Vital signs • Electrocardiogram (12-Lead ECG) test • Clinical laboratory test • Local toxicity assessment • Continuous ECG and SpO2 monitoring
Adverse events were described by dose group and treatment group based on severity and causal relationship with the stsudy drug, and the frequency and percentage of the number of test subjects with adverse events were compared and evaluated. Vital signs, electrocardiogram test, clinical laboratory tests, physical examination, monitoring of adverse events such as subjective and objective symptoms, continuous ECG and SpO2 monitoring, and the like were comprehensively reviewed, and statistical analysis was performed if necessary only on items determined to be clinically significant.
Pharmacokinetic variables were obtained by a non-compartmental analysis method for subjects who completed this clinical trial using appropriate and validated pharmacokinetic software (for example, Phoenix WinNonlin® (Version 8.0 or higher, Pharsight, CA, USA)), and descriptive statistics (mean, standard deviation, and the like) were obtained for each dose group and treatment group.

In data set [2] the test system is mBMDM. The data set is described as follows: TNF-α ELISA in LPS-primed mBMDM. It is filed as cell-based, mouse. Conditions: 10 ng/ml LPS 3 hours, then 0, 25, 100, 400 ng/ml TDCA 1 hour, FIG. 1C. Here is the method: After the time expired, the supernatant was collected, stored at −80° C., and then subjected to ELISA analysis.
For data set [3], the system named is mBMDM. The data set is described as follows: qRT-PCR of inflammation-related factor transcription in LPS+BzATP-treated mBMDM. It is filed as cell-based, mouse. Conditions: 10 ng/ml LPS, 300 μM BzATP and 400 ng/ml TDCA simultaneously 1 hour, FIG. 1B. As for the experimental part: The bone marrow-derived macrophages of Example <1-1> were cultured in culture dishes at various densities and then collected (4×10^4, 5×10^5, 1×10^6 cells/well, 96-well, 24-well, and 12-well culture dishes, respectively). […] After the time expired, the cells were collected, stored at −80° C., and then subjected to qRT-PCR analysis.

Data set [4] is described as follows: half-life estimate from non-clinical data. As to conditions: calculated based on estimates made from non-clinical data.
Data set [5] has as its system mBMDM. The data set is described as follows: IL-1β ELISA in mBMDM activated with LPS+ATP or LPS+BzATP. Conditions: then 0, 25, 100 or 400 ng/ml TDCA, FIG. 2B. It is filed as cell-based, mouse. Here is the method: The bone marrow-derived macrophages of Example <1-1> were cultured in culture dishes at various densities and then collected (4×10^4, 5×10^5, 1×10^6 cells/well, 96-well, 24-well, and 12-well culture dishes, respectively). […] After the time expired, the supernatant was collected, stored at −80° C., and then subjected to ELISA analysis.

Another data set concerns mBMDM cells. The data set is described as follows: intracellular cAMP concentration in LPS-stimulated mBMDM (chemiluminescent analysis). It is filed as cell-based, mouse. As to conditions: 100 ng/ml LPS and 400 ng/ml TDCA simultaneously for 30 minutes; FIG. 1A.
Data set [6] deals with sepsis induced by intravenous LPS in dogs. The experiment in a line: canine LPS-induced sepsis (systemic inflammation) model. It is filed as in vivo, dog. Conditions: LPS i.v. As for the experimental part:
After LPS administration, blood pressure was monitored every 1 hour, blood was collected at 0, 1, 3, 6, 12, 18, 24, 36, and 48 h, and the animals were sacrificed at 48 h to complete the experiment.
The survival rate was examined by checking the number of beagle dogs that died for 48 hours in the two treatment groups in which sepsis was induced in Example <2-1>.
Blood pressure was measured hourly for 48 hours in the two treatment groups in which sepsis was induced in Example <2-1>.
Blood urea nitrogen (BUN) and creatinine tests were performed as renal function tests. Specifically, blood was collected hourly for 48 hours from the two treatment groups in which sepsis was induced in Example <2-1>, serum was separated, and then BUN and […] concentrations in the serum were measured.
Blood was collected hourly for 48 hours from the two treatment groups in which sepsis was induced in Example <2-1>, serum was separated, and then the inflammatory cytokine IL-1β in the serum was measured.

Setting [7] is: single i.v. NuSepin 0.1-1.6 mg/kg or placebo.

Description for mBMDM cells: Specifically, the bone marrow extracted from C57BL/6N mouse was differentiated in RPMI medium supplemented with 10% FBS, 100 U/ml penicillin streptomycin, 55 μM 2-mercaptoethanol, and 10 ng/ml recombinant mouse granulocyte-macrophage colony-stimulating factor (GM-CSF) for 7 days.

sodium taurodeoxycholate [TDCA]: in data set [1] (single i.v. 0.1, 0.2, 0.4, 0.8, 1.6 mg/kg), the PK properties entry was “concentration dependent manner”. Moreover, in data set [1] (setting [7]), the drug-related side effects result is “one has mild IMD (immunomodulatory drugs)-related side effects”; the “severity and outcome of side effects” value is “all of the side effects are not severe and recover without treatment”. Moreover, the “clinical trial subjects with side effects” value in data set [1] (single i.v. NuSepin 0.1-1.6 mg/kg or placebo, 40 subjects) is on record as “three of the clinical trial subjects have side effects”. The “TNF-α produced by LPS” value in the data set with mBMDM [2] is listed as “decreased”. Besides, in the data set on mBMDM [3], the “intracellular transcriptional expression of ASC” value is “decreased”, the “intracellular transcriptional expression of Caspase1” value is “decreased”, the “intracellular transcriptional expression of IL-1β” value is listed as “decreased” and the “intracellular transcriptional expression of NLRP3” value was “decreased”. Also, the “half-life of the drug” value in data set [4] is “approximately 1 hour”. Besides, the “concentration of IL-1β produced by inflammation activation” value in the data set on mBMDM [5] is reported as “decreases in proportion to the amount of TDCA used for treatment”. Besides, in the data set on mBMDM cells, the “cAMP concentration in cells” value is reported as “recovered”. The survival rate entry in data set [6] (TDCA i.v. 2, 1, 1 mg/kg at 12-hour intervals, 48 hours, half of placebo animals died, FIG. 3B) is given as “all animals administered with TDCA have survived until 48 hours”. In data set [6] (TDCA i.v. 2, 1, 1 mg/kg, FIG. 3C), the “blood pressure (hypotensive shock)” value is on record as “hypotensive shock tends to be inhibited”. Moreover, in data set [6] (TDCA i.v. 2, 1, 1 mg/kg, FIG. 3D), the “increase in level of BUN in the blood” value is “suppressed”. The “increase in level of creatinine in the blood” value in data set [6] (TDCA i.v. 2, 1, 1 mg/kg, FIG. 3E) is “suppressed”. For the same substance, in data set [6] (TDCA i.v. 2, 1, 1 mg/kg, FIG. 3F), the IL-1β in serum result is “further inhibited than those in the placebo group”. Also, the IL-8 in serum result in data set [6] (TDCA i.v. 2, 1, 1 mg/kg, FIG. 3G) is given as “further inhibited than those in the placebo group”.

Source of the values: US20250262225A1, “COMPOSITION FOR TREATMENT OF COVID-19 COMPRISING TAURODEOXYCHOLIC ACID OR PHARMACEUTICALLY ACCEPTABLE SALT THEREOF AS ACTIVE INGREDIENT” (SHAPERON INC., priority 2021, published 2025).
